In publication PMC6445226, “Kinetic study on the inhibition of xanthine oxidase by acylated derivatives of flavonoids synthesised enzymatically” (Journal of Enzyme Inhibition and Medicinal Chemistry, 2017):
Like-named read-outs stand apart in the source and are kept apart here.

Legend:
[1] = target: T1, xanthine oxidase from bovine milk (Bos taurus, UniProt P80457); experiment: Inhibition of xanthine oxidase (XO) activity, uric acid formed from xanthine, absorbance at 290 nm; assay type: biochemical; conditions: for inhibition at 45 µM: read-out: Xanthine oxidase inhibition (XOI %); for IC50: value of x when y = 50 from straight line equation of XOI % vs concentration
T1 construct: xanthine oxidase from bovine milk; purchased Sigma-Aldrich Chemical Co., St. Louis, MO; host or cells: bovine milk (natural source)
T1 sequence (P80457 whole entry): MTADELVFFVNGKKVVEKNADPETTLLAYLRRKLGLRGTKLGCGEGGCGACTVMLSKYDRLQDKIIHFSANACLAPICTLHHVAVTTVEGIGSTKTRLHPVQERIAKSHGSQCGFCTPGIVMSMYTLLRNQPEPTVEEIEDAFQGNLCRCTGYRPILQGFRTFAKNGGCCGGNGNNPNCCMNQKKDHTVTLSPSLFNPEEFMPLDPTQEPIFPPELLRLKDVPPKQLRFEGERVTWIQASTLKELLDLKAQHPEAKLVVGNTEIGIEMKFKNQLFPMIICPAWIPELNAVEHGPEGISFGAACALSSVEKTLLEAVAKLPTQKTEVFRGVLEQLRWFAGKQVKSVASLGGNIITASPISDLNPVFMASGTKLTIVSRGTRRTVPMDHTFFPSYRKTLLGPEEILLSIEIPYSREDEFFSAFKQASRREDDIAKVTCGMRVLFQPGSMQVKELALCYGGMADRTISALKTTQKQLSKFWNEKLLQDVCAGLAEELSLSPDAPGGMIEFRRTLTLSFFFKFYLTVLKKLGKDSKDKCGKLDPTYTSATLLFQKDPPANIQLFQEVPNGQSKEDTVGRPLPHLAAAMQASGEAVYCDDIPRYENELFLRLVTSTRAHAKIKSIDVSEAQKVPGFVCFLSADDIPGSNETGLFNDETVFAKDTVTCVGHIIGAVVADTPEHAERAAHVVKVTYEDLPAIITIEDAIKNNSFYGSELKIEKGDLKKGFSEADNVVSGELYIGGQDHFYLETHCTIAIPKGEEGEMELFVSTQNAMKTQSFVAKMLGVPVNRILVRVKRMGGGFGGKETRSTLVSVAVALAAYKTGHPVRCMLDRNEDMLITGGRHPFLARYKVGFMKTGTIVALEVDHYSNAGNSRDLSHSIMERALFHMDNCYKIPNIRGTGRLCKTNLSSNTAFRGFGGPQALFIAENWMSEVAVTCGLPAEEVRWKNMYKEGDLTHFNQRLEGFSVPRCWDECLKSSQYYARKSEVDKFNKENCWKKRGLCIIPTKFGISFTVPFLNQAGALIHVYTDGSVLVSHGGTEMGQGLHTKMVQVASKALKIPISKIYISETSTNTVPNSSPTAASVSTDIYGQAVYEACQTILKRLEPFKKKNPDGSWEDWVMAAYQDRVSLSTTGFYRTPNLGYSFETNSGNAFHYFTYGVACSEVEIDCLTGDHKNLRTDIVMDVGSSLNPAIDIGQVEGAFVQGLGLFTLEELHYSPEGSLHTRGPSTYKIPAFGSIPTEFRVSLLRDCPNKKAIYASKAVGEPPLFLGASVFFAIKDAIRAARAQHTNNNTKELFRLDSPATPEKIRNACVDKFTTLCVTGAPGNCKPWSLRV
Description: Inhibition of XO activity was assessed by measuring the uric acid formed from the xanthine substrate. Solutions of xanthine in various concentrations in a 0.1 M, pH 7.4 phosphate buffer were incubated together with 100 μl of ethanol and the same volume of samples of the solutions with different concentrations (45 and 90 μM in a 0.1 M, pH 7.4 phosphate buffer). The samples were pre-incubated at 37 °C for 10 min. The XO solution (0.3 ml, 0.1 U/ml) was added to the reaction mixture and the flasks were incubated at 37 °C for 20 min. The enzymatic reaction was interrupted by adding 25 μl of 3.2% HCl. The absorption of the samples was measured using an ELISA reader Epoch, BioTek (Winooski, VT) at 290 nm. The uric acid production was calculated from the differential absorbance with a blank solution without xanthine oxidase. The control was a solution containing xanthine and XO.
Vmax (maximum reaction rate) and Km (Michaelis–Menten constant, that is the substrate concentration at 1/2 the maximum reaction rate) were calculated and the type of inhibition kinetics was identified using the Origin 8.6 program and the rectangular hyperbola model. […] Reaction rate (expressed as uric acid concentration in μmol/min) was obtained from the uric acid standard curve (y = 0.024x − 0.1242, R^2 = 0.9786).

[2] = Partition coefficient determination in octanol/water (k); assay type: physicochemical; conditions: octan-1-ol/water, 50 μM sample, UHPLC-MS; SD <0.01
Description: The partition coefficients of the untreated flavonoids in octanol/water (k) were analysed to determine their degrees of lipophilicity. In test tubes, 2.0 ml of a solution of the sample with a concentration of 50 μM were added to 2.0 ml of octanol saturated with water. The mixture was shaken for 1 min and then centrifuged for 15 min at 3000 rpm. […] The partition coefficient was obtained using the equation: k=Co/Ca×r; where Co = test compound concentration in octanol, Ca = test compound concentration in aqueous solution, r = ratio of the volumes of the oily and the aqueous phases.

XO [3] = system: XO; set-up: method as in PMID 12231379; conditions: XO inhibition; cited from earlier work
XO [4] = system: XO; set-up: method as in earlier work; conditions: XO inhibition; cited from earlier work
[5] = inhibitor at 45 μM, 250 μM of xanthine substrate, derivatives after 12 h of enzymatic acylation

Molecule: Oc1ncnc2[nH]ncc12 [Allopurinol, allopurinol]
- inhibition at 45 µM [1]: 89.7%

Molecule: COc1ccc([C@@H]2CC(=O)c3c(O)cc(O[C@@H]4O[C@H](CO[C@@H]5O[C@@H](C)[C@H](O)[C@@H](O)[C@H]5O)[C@@H](O)[C@H](O)[C@H]4O)cc3O2)cc1O [Hesperidin, hesperidin]
- Xanthine oxidase inhibition (XOI %) [1, 5]: 8.24 ± 2.10%
- IC50 [1]: 333 µM
- Partition coefficient (k) [2]: 0.42

Molecule: C[C@@H]1O[C@@H](O[C@H]2[C@H](Oc3cc(O)c4c(c3)O[C@H](c3ccc(O)cc3)CC4=O)O[C@H](CO)[C@@H](O)[C@@H]2O)[C@H](O)[C@H](O)[C@H]1O [Naringin, naringin]
- inhibition at 45 µM [1, 5]: 14.8 ± 4.8%
- IC50 [1]: 206 µM
- Partition coefficient (k) [2]: 0.37

Molecule: O=c1c(O)c(-c2ccc(O)c(O)c2)oc2cc(O)cc(O)c12 [Quercetin, quercetin]
- Partition coefficient (k) [2]: 1.46

Molecule: C[C@@H]1O[C@@H](OC[C@H]2O[C@@H](Oc3c(-c4ccc(O)c(O)c4)oc4cc(O)cc(O)c4c3=O)[C@H](O)[C@@H](O)[C@@H]2O)[C@H](O)[C@H](O)[C@H]1O [Rutin, rutin]
- Partition coefficient (k) [2]: 0.48

Molecule: O=c1c(O)c(-c2ccc(O)cc2)oc2cc(O)cc(O)c12 [kaempferol]
- IC50 (XO [3]): 2.5 µM

Molecule: O=c1c(O)c(-c2ccc(O)cc2O)oc2cc(O)cc(O)c12 [morin]
- IC50 (XO [3]): 40 µM

Molecule: Hesperidin decanoate
- Xanthine oxidase inhibition (XOI %) [1, 5]: 16.42 ± 3.21%
- IC50 [1]: 199 µM
- Partition coefficient (k) [2]: 0.83

Molecule: Naringin decanoate
- Xanthine oxidase inhibition (XOI %) [1, 5]: 25.61 ± 2.85%
- IC50 [1]: 118 µM
- Partition coefficient (k) [2]: 0.86

Molecule: Naringin octanoate
- Xanthine oxidase inhibition (XOI %) [1, 5]: 28.80 ± 5.76%
- IC50 [1]: 110 µM

Molecule: isoquercitrin butyrate
- IC50 (XO [4]): 144 µM

Molecule: isoquercitrin oleate
- IC50 (XO [4]): 27 µM

Molecule: isoquercitrin stearate
- IC50 (XO [4]): 61 µM
